Patent publication US10344330B2, “Glatiramer acetate response biomarker mRNA potency assay” (Mylan Inc., priority 2013, dated 2019)
Values joined by “and” are separate entries in the source; they are usually repeats but may differ in a detail not shown here. Identical values can stand only once.

Legend:
[1] = test system: mIL-2 mRNA in primary LN cells; test: mIL-2 mRNA by real-time PCR in ex vivo stimulated LN cells of immunized (SJL/J×BALB/C)F1 mice (Example I); assay type: cell-based, mouse
Protocol: For each of the three experiments summarized in Table 1, female (SJL/J×BALB/C) F1 hybrid (Jackson Laboratory) mice were immunized by footpad injection with either 250 μg GMA (Mylan Pharmaceuticals, Inc.) and CFA (Sigma Aldrich), or Mannitol and CFA (as a negative control). The GA solution was diluted to 5 mg/mL with Dulbecco's Phosphate-buffered saline. A dose solution was then prepared by mixing the diluted GA solution (5 mg/mL) and CFA (1:1) until well-emulsified. Each mouse received a total injection volume of 0.1 mL (250 μg GA). Animals were immunized on Day 0. Immunized animals were sacrificed via cervical dislocation on Day 10 following immunization. Lymph nodes in the axillary and popliteal regions were removed aseptically in a purifier clean bench, and transferred into a sterile petri dish containing about 5 mL of sterile RPMI 1640 medium. The LN were washed 3 times with −5 mL of RPMI medium, and the LN cells isolated by pressing the LN with a syringe plunger. The cell suspension was transferred to a sterile 50 mL conical tube, washed in about 40 mL of RPMI medium by centrifuging at about 200×g for 10 minutes at about 4° C., and re-suspended in RPMI 1640 medium for cell counting. The cell suspension was centrifuged at about 200×g for 10 minutes at about 4° C. and re-suspended in ice cold enriched DCCM-1 medium. The LN cells (2.5×10^6 cells/cm^2) were plated in the wells of a 48-well tissue culture plate and stimulated with GA or controls.
After incubation at about 37° C. in a humidified CO2 incubator for the indicated time, total RNA was isolated from the treated cells using the RNeasy Mini Kit (Qiagen, Cat. #74104). Cells were lysed in RNA lysis buffer, transferred to Qiagen spin columns, washed, and the RNA eluted with DEPC-treated water from the column. cDNA was synthesized from each RNA sample using the High Capacity cDNA Reverse Transcription Kit (Applied Biosystems, Cat. #4368814). The PCR reactions were carried out using TaqMan Universal PCR Master Mix (Applied Biosystems, Cat. #4304437) and specific primers/probe for the target cytokine and reference internal controls. Primers/probes for mouse cytokines IL-2 (Cat. #4331182; ID Mm00434256_m1), IL-4 (Cat. #4331182; ID Mm00445259_m1), IL-5 (Cat. #4331182; ID Mm00439646_m1), IFN-γ (Cat. #4331182; ID Mm01168134_m1), IL-10 (ID Mm00439614_m1), and TNF-α (Mm00443260_g1) were obtained from Life Technologies. Expression of cytokine mRNA was quantitatively analyzed using a Real-Time PCR system (7500, Applied Biosystems).
(DCCM1 from Beit Haemek Ltd.; Cat. No. 05 010 1A). There was no MBP treatment for the 2-hour groups. (MBP from Bachem; Cat No. H-1964.0001) For each evaluation time DCCM1 was studied and compared, i.e. 2 hours represents 2 hours with DCCM1, 4 hours=4 hours, etc., and served as representative control for each timepoint.
For Experiment 3, a 96-well plate format was used, and RNA isolation was carried out using an SV 96 Total RNA Isolation System (Promega). Immunization of Groups 3A and 4A are described in Table 1. […] Y-axis: linear mRNA fold-changes of mIL-2. X-axis: log Cop and GA (Mylan GMA) concentration values. The best fit for the data set was performed using the logarithmic model.
Group 1B animals were female (SJL/J×BALB/C) F1 hybrid (Jackson Laboratory) mice immunized by footpad injection with either 250 μg GA and CFA, or Mannitol and CFA (as a negative control). A dose solution was prepared by mixing a diluted GA solution (5 mg/mL) and CFA (1:1).

[2] = test system: IL-5 secreted by LN cells; test: IL-5 secretion by GA-stimulated LN cells, MSD 9-plex ELISA (Example II); assay type: cell-based, mouse; conditions: for IL-5 secretion response ratio (treated cell medium to control DCCM1 medium): 21 hr
Protocol: Animals at 8 weeks of age were immunized by injection into four footpads using a 1 mL syringe with a 27-G, 1⁄2-inch needle. […] Ten days post-immunization, immunized animals were sacrificed via cervical dislocation. […] The LN cells were isolated by pressing the LN with the plunger end of a sterile syringe. […] Trypan blue exclusion method was used to determine the cell density of viable cells in the suspension. […] Cat. […] LN cells were plated into a 24-well tissue culture plate for drug stimulation. […] Cell debris was removed by centrifugation at ca. 200×g for 10 minutes at 4° C. Cytokines secreted by treated cells were determined on the day of collection by ELISA using mouse TH 1/TH 2 9-Plex Tissue Culture Kit (Meso Scale Discovery; Cat No. […]-2, Lot #: K0032839) which detects Th1 cytokines (IFN-γ, IL-2, IL-12, IL-1β, TNF-α, CXCL1) and Th2 cytokines (IL-4, IL-5 and IL-10). For IFN-γ, culture media also were assayed at 45 hours using mouse IFN-γ Tissue Culture Kit (Meso Scale Discovery; Cat No. […] For the positive control, 0.5 mL of LN cells (5×10^6 cells/well) were treated with 0.5 mL of ConA (5 μg/mL). For the negative control, 0.5 mL of LN cells (5×10^6 cells/well) were treated with 0.5 mL of MBP (20 μg/mL). The LN cells with mock stimulation (enriched DCCM1 medium) were used to monitor the background level of a cytokine. For the cytokine assays, calibration standards or samples were incubated in the MULTI-SPOT or the SINGLE-SPOT plate and each cytokine bound to its corresponding capture antibody. All test samples were run in duplicate. The amount of each cytokine on its distinct spot was quantified using a cytokine-specific detection antibody labeled with MSD SULFO-TAGTM reagent. Electrochemiluminescent signals from immobilized SULFO-TAGTM-labeled complexes on each spot from each well were captured by the MSD SECTOR Imager 6000, which produces a signal directly proportional to the amount of captured cytokine in a test sample. The levels of cytokines in test samples were derived by interpolation from calibration curves with calibration standards of known concentrations using reagents provided with the MSD kits. Kits were used according to the manufacturer's protocols. […] Data are expressed as a response ratio of cytokine concentration in treated cell medium to control DCCM1 medium.

[3] = Experiment 1, GA-immunized (SJL/J×BALB/C)F1, 2 hour post stimulation, GA 10, ConA 2.5 μg/mL
[4] = Experiment 1, GA-immunized (SJL/J×BALB/C)F1, 4 hour post stimulation, GA 10, MBP 10, ConA 2.5 μg/mL
[5] = Experiment 1, GA-immunized (SJL/J×BALB/C)F1, 6 hour post stimulation, GA 10, MBP 10, ConA 2.5 μg/mL
[6] = Experiment 1, GA-immunized (SJL/J×BALB/C)F1, 24 hour post stimulation, GA 10, MBP 10, ConA 2.5 μg/mL
[7] = Experiment 3, Group 3A (GA + CFA), stimulation 2.5 μg/mL, 6 hours
[8] = Experiment 3, Group 4A controls, *Animals not immunized, MBP 10, ConA 2.5 μg/mL, 6 hours
[9] = Group 1B (GA + CFA), 4 hours post-stimulation, GA 10, MBP 10, ConA 2.5 μg/mL, reference 18S rRNA
[10] = Group 1B (GA + CFA), 6 hours post-stimulation, GA 10, MBP 10, ConA 2.5 μg/mL, reference 18S rRNA
[11] = Group 2B (Mannitol + CFA), 4 hours post-stimulation, GA 10, MBP 10, ConA 2.5 μg/mL, reference 18S rRNA
[12] = Group 2B (Mannitol + CFA), 6 hours post-stimulation, GA 10, MBP 10, ConA 2.5 μg/mL, reference 18S rRNA
[13] = BALB/cByJ, immunized GA Intraplantar
[14] = BALB/cByJ, immunized GA Lower Limb
[15] = BALB/cByJ, immunized Mannitol Intraplantar
[16] = C57BL10J, immunized GA Intraplantar
[17] = C57BL10J, immunized GA Lower Limb
[18] = C57BL10J, immunized Mannitol Intraplantar
[19] = CD-1, immunized GA Intraplantar
[20] = CD-1, immunized Mannitol Intraplantar
[21] = Experiment 3, Group 3A (GA + CFA), stimulation 10 μg/mL, 6 hours

Molecule	mIL-2 mRNA Level [1, 3]	mIL-2 mRNA Level [1, 4]	mIL-2 mRNA Level [1, 5]	mIL-2 mRNA Level [1, 6]	mIL-2 mRNA Level [1, 7]	mIL-2 mRNA Level [1, 8]	mIL-2 mRNA Level [1, 9]	mIL-2 mRNA Level [1, 10]	mIL-2 mRNA Level [1, 11]	mIL-2 mRNA Level [1, 12]	IL-5 secretion response ratio (treated cell medium to control DCCM1 medium) [2, 13]	IL-5 secretion response ratio (treated cell medium to control DCCM1 medium) [2, 14]	IL-5 secretion response ratio (treated cell medium to control DCCM1 medium) [2, 15]	IL-5 secretion response ratio (treated cell medium to control DCCM1 medium) [2, 16]	IL-5 secretion response ratio (treated cell medium to control DCCM1 medium) [2, 17]	IL-5 secretion response ratio (treated cell medium to control DCCM1 medium) [2, 18]	IL-5 secretion response ratio (treated cell medium to control DCCM1 medium) [2, 19]	IL-5 secretion response ratio (treated cell medium to control DCCM1 medium) ([2]; CD-1, immunized GA Lower Limb)	IL-5 secretion response ratio (treated cell medium to control DCCM1 medium) [2, 20]	mIL-2 mRNA Level [1, 21]	also measured
Concanavalin A [ConA, reference compound]	183.4 fold change vs control	131.5 fold change vs control	105.0 fold change vs control	16.2 fold change vs control	111.0 fold change vs control	91.4 fold change vs control	256.3 fold change vs control	54.3 fold change vs control	517.9 fold change vs control	277.9 fold change vs control	22.09	14.24	13.33	8.16	5.24	3.93	13.49	6.35	7.11		
L-glutamic acid polymer with L-alanine, L-lysine and L-tyrosine, acetate (salt) [GA]	5.3 fold change vs control	12.2 fold change vs control	20.8 fold change vs control	3.6 fold change vs control	20.2 fold change vs control		16.7 fold change vs control	10.2 fold change vs control	1.8 fold change vs control	1.4 fold change vs control										26.1 fold change vs control	mIL-2 mRNA Level ([1]; Experiment 3, Group 3A (GA + CFA), stimulation 1 μg/mL, 6 hours): 9.7 fold change vs control; mIL-2 mRNA Level ([1]; Experiment 3, Group 3A (GA + CFA), stimulation 5 μg/mL, 6 hours): 22.6 fold change vs control; mIL-2 mRNA Level ([1]; Experiment 3, Group 3A (GA + CFA), stimulation 15 μg/mL, 6 hours): 27.3 fold change vs control; mIL-2 mRNA Level ([1]; Experiment 3, Group 3A (GA + CFA), stimulation 25 μg/mL, 6 hours): 34.7 fold change vs control; mIL-2 mRNA Level ([1]; Experiment 3, Group 4A (Mannitol + CFA), stimulation 5 μg/mL, 6 hours): 3.0 fold change vs control; mIL-2 mRNA Level ([1]; Experiment 3, Group 4A (Mannitol + CFA), stimulation 10 μg/mL, 6 hours): 1.6 fold change vs control; mIL-2 mRNA Level ([1]; Experiment 3, Group 4A (Mannitol + CFA), stimulation 25 μg/mL, 6 hours): 1.7 fold change vs control and 1.5 fold change vs control; mIL-2 mRNA level increase vs DCCM-1-stimulated control ([1]; Group 1B, 4 and 6 hours (text summary of Table 8)): at least 10 fold; IL-5 secretion, dose response to GA (in words) ([2]; BALB/cByJ cells and CD1 cells): dose-dependent manner
MBP: myelin basic protein, a negative control (protein, UniProt P02686 1-304, looked up) Myelin basic protein: MGNHAGKRELNAEKASTNSETNRGESEKKRNLGELSRTTSEDNEVFGEADANQNNGTSSQDTAVTDSKRTADPKNAWQDAHPADPGSRPHLIRLFSRDAPGREDNTFKDRPSESDELQTIQEDSAATSESLDVMASQKRPSQRHGSKYLATASTMDHARHGFLPRHRDTGILDSIGRFFGGDRGAPKRGSGKDSHHPARTAHYGSLPQKSHGRTQDENPVVHFFKNIVTPRTPPPSQGKGRGLSLSRFSWGAEGQRPGFGYGGRASDYKSAHKGFKGVDAQGTLSKIFKLGGRDSRSGSPMARR		1.0 fold change vs control	0.3 fold change vs control	0.6 fold change vs control		1.5 fold change vs control	0.5 fold change vs control	0.3 fold change vs control	0.4 fold change vs control	0.5 fold change vs control	1.22	0.99	1.07	1.31	0.85	0.99	1.33	1.00	1.16	0.9 fold change vs control	
